In patent US11759411B2, “Non-therapeutic use of a biodegradable hydrocarbon oil” (TOTAL MARKETING SERVICES, priority 2017, dated 2023):
Marks after values point to notes of the source that are not given here.

Legend:
[1] = system: HaCaT cells; assay: HOECHST 33342 test, condensation of the chromatin; type: cell-based; details: one hour with oil or CM, then 20 minutes with BAC 8 ppm by weight, HOECHST 33342, HaCat cells
Method: The following standards and methods were used to measure the properties hereinabove: • flash point: EN ISO 2719 • density at 15° C.: EN ISO 1185 • viscosity at 40° C.: EN ISO 3104 • aniline point: EN ISO 2977 • boiling point: ASTM D86 • biodegradability: OECD method 306 • refractive index at 20° C.: ASTM D 1218 • vapour pressure: calculated according to methods well known to those skilled in the art Tests for Anti-Wrinkle or Anti-Ageing Cosmetic Applications Preparation of the Tests: • Preparation of the microplates: 24 hours before the incubation with the oils A and B, the HaCaT cells are inoculated with a cell density of 100,000 cells/ml in 96-well microplates (Corning). The microplates are then placed in the incubator at 37° C. In a microplate, each condition was tested at least three times. Each experiment was carried out at least three times independently in order to validate the reproducibility of the results and to carry out statistical analyses. • Incubation of cells with the oils A or B: two durations of incubation were selected for the products to be tested pure: an incubation for fifteen minutes and an incubation for one hour. […]
The cellular effects are evaluated directly on the adherent living cells by cytofluorimetric microtitration (MiFALC tests-Microtitration Fluorimetric Assays on Live Cells). The microplate reader used in the study is the Safire cytometer (Tecan). […]

[2] = system: HaCaT cells; assay: H2DCF-DA test, production of ROS after oil then preservative (POE or MIT); type: cell-based
Method: The following standards and methods were used to measure the properties hereinabove: • flash point: EN ISO 2719 • density at 15° C.: EN ISO 1185 • viscosity at 40° C.: EN ISO 3104 • aniline point: EN ISO 2977 • boiling point: ASTM D86 • biodegradability: OECD method 306 • refractive index at 20° C.: ASTM D 1218 • vapour pressure: calculated according to methods well known to those skilled in the art Tests for Anti-Wrinkle or Anti-Ageing Cosmetic Applications Preparation of the Tests: • Preparation of the microplates: 24 hours before the incubation with the oils A and B, the HaCaT cells are inoculated with a cell density of 100,000 cells/ml in 96-well microplates (Corning). […]
The cellular effects are evaluated directly on the adherent living cells by cytofluorimetric microtitration (MiFALC tests-Microtitration Fluorimetric Assays on Live Cells). The microplate reader used in the study is the Safire cytometer (Tecan).
The test H2DCF-DA (2′,7′-dihydrodichlorofluoresceine diacetate) is used in order to evaluate the production of reactive oxygen species. […] Thus, an increase in the intensity of fluorescence is combined with an increase in the production of reactive oxygen species (ROS) and by extrapolation with an increase in the oxidative stress in the cells studied.
Preservatives, used as an additive in cosmetic compositions, were evaluated. […]

Molecule: benzalkonium chloride [CM + BAC]
- Measurement of the condensation of the chromatin [1]: 138*** % relative to the CM

Molecule: phenoxyethanol [CM + POE]
- Production of ROS ([2]; oil or CM (e.g. 15 minutes) then POE (e.g. 30 minutes, phenoxyethanol 250 μg/mL)): 132 % relative to the CM

Molecule: Cn1sccc1=O [MIT, methylisothiazolinone]
- Production of ROS ([2]; oil or none, then MIT): 135 % relative to the CM
